The supplement of paper PMC10307832

Legend:
Test in all cases: relative viability (nuclei count vs DMSO), 5 days (fraction); higher = more cells survive
NCI-H1651 = tested on: NCI-H1651
In short: (§1)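 Medians of duplicate plates are given as relative viability. That measure is the nuclei count in treated wells divided by the count in vehicle wells. Counts were taken on 4× images of lung cancer cell lines in 1536-well plates, 5 days after pin-tool dosing the day after seeding with one drug alone or a fixed anchor-drug dose plus five library-drug doses (not always all listed) in √10 steps.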

NCI-H2087 = tested on: NCI-H2087
In short: as §1

NCI-H1993 = tested on: NCI-H1993
In short: as §1

NCI-H647 = tested on: NCI-H647
In short: as §1

NCI-H3122 = tested on: NCI-H3122
In short: as §1

LXF-289 = tested on: LXF-289
In short: as §1

CAL-12T = tested on: CAL-12T
In short: as §1

HOP-62 = tested on: HOP-62
In short: as §1

NCI-H650 = tested on: NCI-H650
In short: as §1

LCLC-103H = tested on: LCLC-103H
In short: as §1

NCI-H2023 = tested on: NCI-H2023
In short: as §1

COR-L 105 = tested on: COR-L 105
In short: as §1

EPLC-272H = tested on: EPLC-272H
In short: as §1

RERF-LC-KJ = tested on: RERF-LC-KJ
In short: as §1

NCI-H1563 = tested on: NCI-H1563
In short: as §1

NCI-H596 = tested on: NCI-H596
In short: as §1

COR-L23 = tested on: COR-L23
In short: as §1

PC-14 = tested on: PC-14
In short: as §1

NCI-H2085 = tested on: NCI-H2085
In short: as §1

A-427 = tested on: A-427
In short: as §1

NCI-H1975 = tested on: NCI-H1975
In short: as §1

CCCCCCCCCCCC1=C(O)C(=O)C=C(O)C1=O [Embelin] + CC(C)C[C@H](NC(=O)[C@H](Cc1ccccc1)NC(=O)c1cnccn1)B(O)O [Bortezomib] (partner 0.002 µM)
relative viability (NCI-H1651; first compound 0.08 µM): 0.958 | relative viability (NCI-H1651; first compound 0.8 µM): 0.92 | relative viability (NCI-H1651; first compound 2.53 µM): 1.01 | relative viability (NCI-H1651; first compound 8 µM): 1.02 | relative viability (NCI-H2087; first compound 0.08 µM): 0.83 | relative viability (NCI-H2087; first compound 0.8 µM): 0.807 | relative viability (NCI-H2087; first compound 2.53 µM): 0.735 | relative viability (NCI-H2087; first compound 8 µM): 0.935 | relative viability (NCI-H1993; first compound 0.08 µM): 1.16 | relative viability (NCI-H1993; first compound 0.8 µM): 1.14 | relative viability (NCI-H1993; first compound 2.53 µM): 1.22 | relative viability (NCI-H1993; first compound 8 µM): 1.08 | relative viability (NCI-H647; first compound 0.08 µM): 1.08 | relative viability (NCI-H647; first compound 0.8 µM): 1.28 | relative viability (NCI-H647; first compound 2.53 µM): 1.43 | relative viability (NCI-H647; first compound 8 µM): 0.929 | relative viability (NCI-H3122; first compound 0.08 µM): 0.978 | relative viability (NCI-H3122; first compound 0.8 µM): 1.03 | relative viability (NCI-H3122; first compound 2.53 µM): 0.916 | relative viability (NCI-H3122; first compound 8 µM): 0.992 | relative viability (LXF-289; first compound 0.08 µM): 1.01 | relative viability (LXF-289; first compound 0.8 µM): 1 | relative viability (LXF-289; first compound 2.53 µM): 1 | relative viability (LXF-289; first compound 8 µM): 1.05 | relative viability (CAL-12T; first compound 0.08 µM): 0.996 | relative viability (CAL-12T; first compound 0.8 µM): 1.27 | relative viability (CAL-12T; first compound 8 µM): 1.04 | relative viability (HOP-62; first compound 0.08 µM): 0.924 | relative viability (HOP-62; first compound 0.8 µM): 0.846 | relative viability (HOP-62; first compound 2.53 µM): 1.15 | relative viability (HOP-62; first compound 8 µM): 0.727 | relative viability (NCI-H650; first compound 0.08 µM): 0.64 | relative viability (NCI-H650; first compound 0.8 µM): 1 | relative viability (NCI-H650; first compound 2.53 µM): 0.668 | relative viability (NCI-H650; first compound 8 µM): 0.453 | relative viability (LCLC-103H; first compound 0.08 µM): 1 | relative viability (LCLC-103H; first compound 0.8 µM): 1.14 | relative viability (LCLC-103H; first compound 2.53 µM): 1.07 | relative viability (LCLC-103H; first compound 8 µM): 0.885 | relative viability (NCI-H2023; first compound 0.08 µM): 0.915 | relative viability (NCI-H2023; first compound 0.8 µM): 1.12 | relative viability (NCI-H2023; first compound 2.53 µM): 1.07 | relative viability (NCI-H2023; first compound 8 µM): 0.578 | relative viability (COR-L 105; first compound 0.08 µM): 0.81 | relative viability (COR-L 105; first compound 0.8 µM): 0.901 | relative viability (COR-L 105; first compound 2.53 µM): 0.765 | relative viability (COR-L 105; first compound 8 µM): 0.961 | relative viability (EPLC-272H; first compound 0.08 µM): 0.804 | relative viability (EPLC-272H; first compound 0.8 µM): 1.07 | relative viability (EPLC-272H; first compound 2.53 µM): 1.17 | relative viability (EPLC-272H; first compound 8 µM): 0.86 | relative viability (RERF-LC-KJ; first compound 0.08 µM): 0.984 | relative viability (RERF-LC-KJ; first compound 0.8 µM): 1.31 | relative viability (RERF-LC-KJ; first compound 2.53 µM): 1.3 | relative viability (RERF-LC-KJ; first compound 8 µM): 1.19 | relative viability (NCI-H1563; first compound 0.08 µM): 1.06 | relative viability (NCI-H1563; first compound 0.8 µM): 0.953 | relative viability (NCI-H1563; first compound 2.53 µM): 0.787 | relative viability (NCI-H1563; first compound 8 µM): 0.753 | relative viability (NCI-H596; first compound 0.08 µM): 0.955 | relative viability (NCI-H596; first compound 0.8 µM): 1.17 | relative viability (NCI-H596; first compound 2.53 µM): 1.3 | relative viability (NCI-H596; first compound 8 µM): 0.87 | relative viability (COR-L23; first compound 0.08 µM): 1 | relative viability (COR-L23; first compound 0.8 µM): 1.1 | relative viability (COR-L23; first compound 2.53 µM): 1.21 | relative viability (COR-L23; first compound 8 µM): 1.21 | relative viability (PC-14; first compound 0.08 µM): 0.858 | relative viability (PC-14; first compound 0.8 µM): 0.899 | relative viability (PC-14; first compound 2.53 µM): 0.84 | relative viability (PC-14; first compound 8 µM): 0.87 | relative viability (NCI-H2085; first compound 0.08 µM): 0.989 | relative viability (NCI-H2085; first compound 0.8 µM): 1.07 | relative viability (NCI-H2085; first compound 2.53 µM): 1.07 | relative viability (NCI-H2085; first compound 8 µM): 1.03 | relative viability (A-427; first compound 0.08 µM): 1.05 | relative viability (A-427; first compound 0.8 µM): 1.11 | relative viability (A-427; first compound 2.53 µM): 0.978 | relative viability (A-427; first compound 8 µM): 0.904 | relative viability (NCI-H1975; first compound 0.08 µM): 0.45 | relative viability (NCI-H1975; first compound 0.8 µM): 0.432 | relative viability (NCI-H1975; first compound 2.53 µM): 0.372 | relative viability (NCI-H1975; first compound 8 µM): 0.367
